The values that follow come from patent publication US4704380A, “Method of stimulating the growth of macrophage-like cells utilizing mitogenic peptides” (Washington University, priority 1987, dated 1987).

Holding throughout (assay type): cell-based
Assay [1] relates to J774 murine macrophage-like cells. As to the kind of experiment: 3[H]-TdR incorporation in growth-arrested J774 cells. How it is done:
(§1) The growth stimulation of macrophage-like cells can be determined by measuring the thymidine uptake of the cells at varying concentrations of the mitogenic peptides of the present invention. This was determined for several macrophage-like cell lines including J774, P388D1, RAW and PU5. These are well-known murine cell lines available, for example, from the American Type Culture Collection, Rockville, Md.
^3 [H]-TdR incorporation. Various cell lines were plated in Dulbeccos's Modified Eagle Medium (DMEM) containing 10% fetal calf serum (FCS) in […] humidified atmosphere at 37° C. at an initial density of 5×10^5 per well in 24 well disposable plastic plates (Falcon, Oxnard, Calif.). Arrest of DNA synthesis (i.e., G0 /G1) was achieved by incubating the cells for 48 hours in serum-free DMEM containing 0.1% bovine serum albumin (BSA). The cells were then exposed to the peptide or to various […], or to FCS for 48 hours. Enhanced thymidine incorporation was assessed following a 2 hour pulse of N-methyl^3 [H]-TdR (1 μCi/ml). The cells were washed ×3 in PBS (phosphate buffered saline, pH 7.4) at 4, precipitated with 10% trichloroacetic acid (30 min at 4) and the insoluble material extracted ×2 with ETOH:ET2 O (3:1 v/v). The precipitate was solubilized in N NaOH and aliquots withdrawn for protein determinations using a dye-binding assay (Bio Rad Labs., Richmond, Calif.) and liquid scintillation spectrometry.
(§2) The various cell lines employed in these tests were the murine macrophage-like cell lines J774, P388D1, RAW and PU5. The various […] used in these tests were platelet-derived growth factor (PDGF), epidermal growth factor (EGF), fibroblast growth factor (FGF), and nerve growth factor (NGF). For background information on these known polypeptide growth factors see, for example, the recent review article by Kris et al., Biotechnology, February 1985, pp. 135-140; and the comprehensive review in Hormonal Proteins and Peptides, Ed. by Choh Hao Li, Vol. 12, "Growth Factors," Academic Press, 1984. EGF, NGF and FGF are commercially available from Biomedical Technologies, Cambridge, Massachusetts. In a representative test, 24 hours following exposure of the growth-arrested cells to optimal concentrations of the peptide (i.e., 10^-8 M), cell numbers inoreased approximately two-fold from a control value of […] cells/culture well. […] The results are set forth in FIG. 2 and in Table I, below. In FIG. 2, the baseline tritiated thymidine (^3 [H]-TdR) incorporation in quiescent J774 cells was 5000 cpm ± 420 s.e.m. (standard error of the mean) per well. The results are expressed as the mean of triplicate determinations.

For assay [2], the system named is growth-arrested murine macrophage-like cells. Kind of assay: Cell number / proliferation of growth-arrested macrophage-like cells. To be noted: for proliferation of macrophage-like cells: concentration ranges of up to 500 ng/ml.
Description: as §2

Assay [3] deals with PU5 murine macrophage-like cell line. Kind of assay: 3[H]-TdR incorporation in growth-arrested PU5 cells. On the procedure:
as §1
(§3) ^3 [H]-TdR incorporation. Various cell lines were plated in Dulbeccos's Modified Eagle Medium (DMEM) containing 10% fetal calf serum (FCS) in […] humidified atmosphere at 37° C. at an initial density of 5×10^5 per well in 24 well disposable plastic plates (Falcon, Oxnard, Calif.). Arrest of DNA synthesis (i.e., G0 /G1) was achieved by incubating the cells for 48 hours in serum-free DMEM containing 0.1% bovine serum albumin (BSA). The cells were then exposed to the peptide or to various […], or to FCS for 48 hours. Enhanced thymidine incorporation was assessed following a 2 hour pulse of N-methyl^3 [H]-TdR (1 μCi/ml). […]
(§4) The various cell lines employed in these tests were the murine macrophage-like cell lines J774, P388D1, RAW and PU5. […] The results are expressed as the mean of triplicate determinations.

The test system of assay [4] is P388D1 murine macrophage-like cell line. Kind of assay: 3[H]-TdR incorporation in growth-arrested P388D1 cells. How it is done:
as §1, §3, §4

Assay [5] relates to RAW murine macrophage-like cell line. Kind of assay: 3[H]-TdR incorporation in growth-arrested RAW cells. How it is done: as §1, §3, §4
[6] abbreviates: J774, test (1), >500 ng per well (highest concentration tested), 48 hours exposure, mean ± s.e.m.

Take “EGF: epidermal growth factor, known polypeptide growth factor [reference compound]”: in assay [1] (setting [6]), the “3[H]-TdR Incorporation/mg/Protein (% Increase)” value came out at 5.2± 0.2%. Moreover, the “proliferation of macrophage-like cells” value in assay [2] is “failed to elicit proliferation”.
Regarding PDGF [reference compound], the “3[H]-TdR Incorporation/mg/Protein (% Increase)” value in assay [1] (setting [6]) was found to be 9.4± 0.3%. In assay [2], the “proliferation of macrophage-like cells” value is listed as “failed to elicit proliferation”.
As for “H-YPPWNKNFTENDLL-OH [Peptide I, H-Tyr-Pro-Pro-Trp-Asn-Lys-Asn-Phe-Thr-Glu-Asn-Asp-Leu-Leu-OH]”, the “Conc./Well: concentration yielding optimal specific 3[H]-TdR incorporation” value is given as 10^-8 M in assay [1] (J774), 10^ -6 M in assay [3] (PU5), 10^ -7 M in assay [4] (P388D1) and 10^ -8 M in assay [5]. The “3[H]-TdR Incorporation/mg/Protein (% Increase)” value in assay [1] (J774, test (1), 10^-8 M per well, 48 hours exposure, mean ± s.e.m. of triplicate cultures) came out at 140± 8.5%; in assay [1] (J774, test (2), 10^-8 M per well, mean ± s.e.m.), 190± 12%; in assay [3] (PU5, test (2), 10^-6 M per well, mean ± s.e.m.) it was 112± 4.4%; in assay [4] (P388D1, test (2), 10^-7 M per well, mean ± s.e.m.), 226± 22%; in assay [5] (test (2), 10^-8 M per well, mean ± s.e.m.), 276± 18%. Also, the “increase in cell numbers over control” value in assay [2] (24 hours after exposure of growth-arrested cells to 10^-8 M) is listed as “approximately two-fold”.
For “NGF: nerve growth factor, known polypeptide growth factor [reference compound]”, the “3[H]-TdR Incorporation/mg/Protein (% Increase)” value in assay [1] (setting [6]) stood at 0± 0.5%. Further, the “proliferation of macrophage-like cells” value in assay [2] is on record as “failed to elicit proliferation”.
